Results as given in PubChem BioAssay AID328 (DTP/NCI, 2004).
Where “and” joins values, the source holds several entries; their conditions need not be identical. Identical values can stand only once. Toxic doses and inconclusive results are not listed. How the source made its calls: active means survival T/C of 150% or more; inactive means T/C below 125% in these data.

Tested on: BDF1 mice, P388 leukemia ip, median survival T/C
Assay: NCI In Vivo Anticancer Drug Screen. Data for tumor model P388 Leukemia (intraperitoneal) in B6D2F1 (BDF1) mice
Conditions: endpoint: median survival time, higher = longer survival
How it was run: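 T/C = treated-group survival ÷ vehicle-control survival; tumour transplanted into mice before dosing.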

[1] = dose: 50.0 mg/kg/injection, schedule: Q01DX009 (ip), vehicle: saline with Tween-80
[2] = dose: 100.0 mg/kg/injection, schedule: Q01DX009 (ip), vehicle: saline with Tween-80
[3] = dose: 100.0 mg/kg/injection, schedule: Q01DX001 (ip), vehicle: saline
[4] = dose: 200.0 mg/kg/injection, schedule: Q01DX009 (ip), vehicle: saline with Tween-80
[5] = dose: 400.0 mg/kg/injection, schedule: Q01DX009 (ip), vehicle: saline with Tween-80

Measured: T/C

CC1(c2ccc(Cl)s2)C(=O)N(Cl)C(=O)N1Cl (configuration not stated)
inactive: dose: 6.25 mg/kg/injection, schedule: Q01DX009 (ip), vehicle: saline with Tween-80 112 % of control | dose: 12.5 mg/kg/injection, schedule: Q01DX009 (ip), vehicle: saline with Tween-80 103 % of control and 106 % of control | dose: 25.0 mg/kg/injection, schedule: Q01DX009 (ip), vehicle: saline with Tween-80 106 % of control and 110 % of control | dose: 25.0 mg/kg/injection, schedule: Q04DX003 (ip), vehicle: water 108 % of control | [1] 104 % of control and 120 % of control (2×) | dose: 50.0 mg/kg/injection, schedule: Q04DX003 (ip), vehicle: water 95 % of control | [2] 95 % of control and 115 % of control | dose: 100.0 mg/kg/injection, schedule: Q04DX003 (ip), vehicle: water 102 % of control

CC1(C#N)CC(C#N)Nc2ccccc2N1 (configuration not stated)
inactive: [3] 104 % of control | dose: 200.0 mg/kg/injection, schedule: Q01DX001 (ip), vehicle: saline 91 % of control | dose: 400.0 mg/kg/injection, schedule: Q01DX001 (ip), vehicle: saline 100 % of control

CCCCCCCCCCCC[N+](C)(C)Cc1ccccc1
inactive: dose: 0.43 mg/kg/injection, schedule: Q04DX003 (ip), vehicle: saline 90 % of control | dose: 0.78 mg/kg/injection, schedule: Q01DX009 (ip), vehicle: saline 109 % of control | dose: 0.87 mg/kg/injection, schedule: Q04DX003 (ip), vehicle: saline 100 % of control | dose: 1.56 mg/kg/injection, schedule: Q01DX009 (ip), vehicle: saline 109 % of control | dose: 1.75 mg/kg/injection, schedule: Q04DX003 (ip), vehicle: saline 100 % of control | dose: 3.5 mg/kg/injection, schedule: Q04DX003 (ip), vehicle: saline 109 % of control
active: dose: 2.05 mg/kg/injection, schedule: Q01DX009 (ip), vehicle: saline 161 % of control

NNC(=S)N/N=C/c1ccc([N+](=O)[O-])s1
inactive: dose: 100.0 mg/kg/injection, schedule: Q01DX009 (ip), vehicle: Klucel (hydroxypropylcellulose) (HPC) 110 % of control | dose: 200.0 mg/kg/injection, schedule: Q01DX009 (ip), vehicle: Klucel (hydroxypropylcellulose) (HPC) 112 % of control

CNC(=S)N/N=C(/C)CCc1c(C)nn(C(=S)NC)c1C
inactive: dose: 150.0 mg/kg/injection, schedule: Q04DX003 (ip), vehicle: Klucel (hydroxypropylcellulose) (HPC) 112 % of control | dose: 225.0 mg/kg/injection, schedule: Q04DX003 (ip), vehicle: Klucel (hydroxypropylcellulose) (HPC) 112 % of control | dose: 335.0 mg/kg/injection, schedule: Q04DX003 (ip), vehicle: Klucel (hydroxypropylcellulose) (HPC) 108 % of control

CN(C)CCC(O)c1c[nH]c2ccccc12 (configuration not stated)
inactive: [2] 99 % of control | [4] 97 % of control | [5] 90 % of control

O=C(Nc1ccc(C2=NCCN2)cc1)c1cccc(C(=O)Nc2ccc(C3=NCCN3)cc2)c1
active: dose: 8.0 mg/kg/injection, schedule: Q01DX010 (ip), vehicle: saline 160 % of control | dose: 16.0 mg/kg/injection, schedule: Q01DX010 (ip), vehicle: saline 163 % of control and 180 % of control | dose: 32.0 mg/kg/injection, schedule: Q01DX010 (ip), vehicle: saline 195 % of control and 200 % of control | dose: 64.0 mg/kg/injection, schedule: Q01DX010 (ip), vehicle: saline 235 % of control and 200 % of control

CCOC(=O)c1ccc(N)c(C(O)(C(F)(F)F)C(F)(F)F)c1
inactive: [2] 90 % of control | [4] 100 % of control | [5] 104 % of control

O=C(Oc1ccc([N+](=O)[O-])cc1)c1ccc(C[n+]2ccccc2)cc1
inactive: [1] 91 % of control | dose: 50.0 mg/kg/injection, schedule: Q01DX009 (ip), vehicle: saline 89 % of control | dose: 50.0 mg/kg/injection, schedule: Q04DX003 (ip), vehicle: saline 91 % of control | [2] 109 % of control | dose: 100.0 mg/kg/injection, schedule: Q01DX009 (ip), vehicle: saline 89 % of control | dose: 100.0 mg/kg/injection, schedule: Q04DX003 (ip), vehicle: saline 104 % of control and 108 % of control | [4] 116 % of control | dose: 200.0 mg/kg/injection, schedule: Q01DX009 (ip), vehicle: saline 96 % of control | dose: 200.0 mg/kg/injection, schedule: Q04DX003 (ip), vehicle: saline 90 % of control and 100 % of control

COc1c2c(c(OC(C)=O)c3c1C(=O)c1ccccc1C3=O)CCCC2
inactive: dose: 6.25 mg/kg/injection, schedule: Q01DX001 (ip), vehicle: saline 115 % of control | dose: 12.5 mg/kg/injection, schedule: Q01DX001 (ip), vehicle: saline 115 % of control | dose: 25.0 mg/kg/injection, schedule: Q01DX001 (ip), vehicle: saline 115 % of control | dose: 50.0 mg/kg/injection, schedule: Q01DX001 (ip), vehicle: saline 115 % of control | [3] 115 % of control
